Patent US6906078B2, “Method of using (H+/K+) ATPase inhibitors as antiviral agents” (Pharmacia Corporation, priority 1994, dated 2005)
pIC50: −log10 of the molar value. Like-named read-outs stand apart in the source and are kept apart here.

Key:
gastric acid secretion = assay: Inhibition of gastric acid secretion in gastric fistula beagle dogs (histamine-stimulated); assay type: in vivo; details: for inhibition in vivo at 3 mg/kg: Canis lupus familiaris, 4 h, read-out: Gastric-Fistula Beagle % Inhibition (3 mg/kg dose)
Description: Adult female beagle dogs weighing 6 to 11 kilograms obtained from Laboratory Research Enterprises (Kalamazoo, Mich.) or from Hazelton Research Animals (Cumberland, Va.) were surgically implanted with a simple Thomas-type gastric cannula. After recovery from surgery, the dogs were trained to stand quietly, fully conscious, in Pavlov-type dog restraining slings and were acclimated to intravenous infusion of histamine dihydrochloride. During the course of these studies, no dog was used more than once a week. All dogs were deprived of food, but not water, for 18 hours prior to each assay. Each dog was initially infused with 0.15 M sodium chloride solution at a constant rate of […]. The volume of gastric secretions, collected in plastic bottles affixed to the cannula, were measured to the nearest 0.1 ml at 30 minute intervals. One of the following protocols was followed, depending on the route chosen for administration of test compound.
Intravenous dosing: Following a 30-minute basal secretion period, test compounds were administered intravenously (i.v.). At the end of an additional 30 minute period, the saline infusion was replaced with histamine dihydrochloride in saline administered at a rate 15 mcg per kilogram of body weight per hour. Histamine stimulation was maintained for a maximum of four hours during which time gastric secretions were collected every 30 minutes. The pH and titratable acidity were determined for samples from each collection period.
Intragastric dosing: Following a 30-minute basal secretion period, he collection bottles were removed, dosing plugs here inserted, and test compounds were administered intragastrically (i.g.) At the end of a 30-minute drug absorption period, the stomachs were emptied, the collection bottles were reattached, and collections were resumed at 30-minute intervals. Simultaneously, the saline infusion was replaced with a continuous intravenous infusion of histamine dihydrochloride in saline administered for four hours at a rate 15 mcg per kilogram of body weight per hour.
Intraduodenal dosing: Dogs were also equipped with duodenal cannulas for intraduodenal (i.d.) administration of test compounds. Dosing was otherwise performed as described for intragastric dosing.
Data from each protocol were analyzed for three gastric sample variables: volume of gastric juice, acid concentration, and total acid output. Percent inhibition for each four-hour experimental period was determined for each parameter by comparison with 3 to 4 controls in which […]. Estimates of ED50's were determined from dose response curves.

(H+/K+)-ATPase = molecular target: T1, (H+/K+)-ATPase (Canis lupus familiaris, UniProt P50996); assay: Inhibition of (H+/K+)-ATPase from canine gastric mucosa (inorganic phosphate release); assay type: biochemical; details: canine gastric mucosa microsomes, pH 6.0, 30 min preincubation at 37° C.; read-out: (H+/K+)-ATPase IC50
T1 construct: The microsomes retained at the 15%-30% sucrose interface, after centrifugation at 250,000×g for sixty minutes, were used as the source of (H^+/K^+)-ATPase; from tissue; host or cells: gastric glandular mucosa of mongrel dogs (microsomal fraction, lyophilized)
T1 sequence (P50996 whole entry): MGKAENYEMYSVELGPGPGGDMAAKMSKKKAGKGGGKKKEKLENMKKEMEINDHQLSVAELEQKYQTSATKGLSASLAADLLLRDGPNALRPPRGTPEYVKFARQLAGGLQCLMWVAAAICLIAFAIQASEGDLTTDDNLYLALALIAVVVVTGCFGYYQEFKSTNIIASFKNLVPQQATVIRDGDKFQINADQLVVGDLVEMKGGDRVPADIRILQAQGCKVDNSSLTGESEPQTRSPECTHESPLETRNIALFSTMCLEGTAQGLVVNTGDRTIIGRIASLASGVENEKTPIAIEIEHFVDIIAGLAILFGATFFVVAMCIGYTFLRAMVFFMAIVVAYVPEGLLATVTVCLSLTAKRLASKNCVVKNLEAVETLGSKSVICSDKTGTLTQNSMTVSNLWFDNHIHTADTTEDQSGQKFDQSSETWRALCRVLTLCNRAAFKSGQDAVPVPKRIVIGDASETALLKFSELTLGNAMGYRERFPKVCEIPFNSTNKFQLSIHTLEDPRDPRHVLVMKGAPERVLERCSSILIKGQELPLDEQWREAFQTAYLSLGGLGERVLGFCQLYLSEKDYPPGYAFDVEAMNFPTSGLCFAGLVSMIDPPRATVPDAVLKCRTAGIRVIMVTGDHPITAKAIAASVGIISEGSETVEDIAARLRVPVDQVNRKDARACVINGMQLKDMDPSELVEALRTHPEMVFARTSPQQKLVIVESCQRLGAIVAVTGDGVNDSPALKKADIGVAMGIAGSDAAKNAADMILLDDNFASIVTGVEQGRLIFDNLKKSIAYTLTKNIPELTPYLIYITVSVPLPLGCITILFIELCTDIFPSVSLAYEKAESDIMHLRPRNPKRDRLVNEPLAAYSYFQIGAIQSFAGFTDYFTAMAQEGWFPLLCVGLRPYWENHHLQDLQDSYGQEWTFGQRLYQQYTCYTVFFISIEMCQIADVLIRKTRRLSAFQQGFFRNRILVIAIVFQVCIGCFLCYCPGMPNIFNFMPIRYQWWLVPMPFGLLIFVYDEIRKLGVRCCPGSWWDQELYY
T1 sequence (P33704 whole entry partner): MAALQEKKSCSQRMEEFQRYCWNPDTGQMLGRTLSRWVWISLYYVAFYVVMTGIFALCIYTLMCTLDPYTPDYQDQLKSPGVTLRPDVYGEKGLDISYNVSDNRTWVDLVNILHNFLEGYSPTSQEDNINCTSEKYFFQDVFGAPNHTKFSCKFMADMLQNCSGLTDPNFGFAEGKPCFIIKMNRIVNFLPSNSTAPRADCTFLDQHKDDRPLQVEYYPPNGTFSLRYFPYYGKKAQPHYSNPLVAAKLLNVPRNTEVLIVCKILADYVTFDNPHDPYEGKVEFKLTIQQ
Description: Mongrel dogs weighing 15 to 25 kilograms were fasted for twenty-four hours, with water provided ad libitum. The animals were anesthetized with pentobarbital and the stomachs were removed. Subsequent tissue manipulations and subcellular fractionations were performed at 0° C. to 4° C. After the stomachs were cut open and rinsed with tap water, the antral and cardiac regions were removed and the remaining tissue was rinsed three times in saline. The glandular mucosa was removed mechanically, chopped finely in a medium containing 10 mM Tris hydrochloride (pH 7.4) and 250 mM sucrose, and homogenized. The homogenate was centrifuged at 20,000×g for twenty minutes and the pellet discarded. The supernatant was then centrifuged at 150,000×g for ninety minutes and the supernatant discarded. The pellet was resuspended in the Tris-HCl/sucrose medium by homogenization. Part (2 ml) of the resultant microsomal suspension was layered onto a step gradient consisting of 9 ml of 15% sucrose above 12 ml of 30% sucrose, each sucrose solution being buffered with 10 mM Tris hydrochloride (pH 7.4) containing 0.01% sodium azide. The microsomes retained at the 15%-30% sucrose interface, after centrifugation at 250,000×g for sixty minutes, were used as the source of (H^+/K^+)-ATPase. Microsomal preparations were lyophilized, a process that assured potassium ion permiability, and stored at −10° C. until used.
(H^+/K^+)-ATPase activity for each test compound was determined, in duplicate, by measuring the release of inorganic phosphate, which was assayed according to the method of J. ChandraRajan and L. Klein, Anal. Biochem., 72 , 407 (1976). The (H^+/K^+)-ATPase assay medium consisted of 20 mm mes-Tris (pH 6.0), 5 mM magnesium chloride, 25 mM sucrose, and 4 mM Tris-ATP with or without 20 mM potassium chloride in a total volume of 2 ml. Microsomal suspensions (20 to 60 mcl, containing about 25 mcg protein) were added to the assay medium, without Tris-ATP, and then preincubated with a test compound for thirty minutes at 37° C. The assay was initiated by adding Tris-ATP and the mixture was incubated another thirty minutes at 37° C. A 200-mcl aliquot of the assay mixture was then added to 1.4 ml of a solution consisting of 0.1 M sodium acetate (pH 4.0) and 10% sodium dodecylsulfate, followed by the addition of 200 mcl each of 1% ammonium molybdate and 1% ascorbic acid. At least fifteen minutes later, the optical absorbance at 870 nm (which was proportional to inorganic phosphate concentration up to 100 nmoles per tube, as determined by a standard curve) was obtained. Enzyme activity was linear with incubation time.
(H^+/K^+)-ATPase activity is represented by the difference between the measured activities in the presence of potassium-ion (K^+-stimulated) and in the absence of potassium ion (basal).

[1] = iv, 3 mg/kg i.v., histamine-stimulated, four-hour period
[2] = intraduodenal, 3 mg/kg i.d., histamine-stimulated, four-hour period

| Compound | pIC50 ((H+/K+)-ATPase) | melting point | inhibition in vivo at 3 mg/kg (gastric acid secretion; [1]) | inhibition in vivo at 3 mg/kg (gastric acid secretion; iv) | inhibition in vivo at 3 mg/kg (gastric acid secretion; [2]) | Gastric-Fistula Beagle % Inhibition (3 mg/kg dose) (gastric acid secretion; 3 mg/kg i.v., histamine-stimulated, four-hour period) | inhibition in vivo at 3 mg/kg (gastric acid secretion; intraduodenal) |
| --- | --- | --- | --- | --- | --- | --- | --- |
| COc1ccc2[nH]c([S+]([O-])Cc3cccc(N)n3)nc2c1 (centres unmarked) [Example 91, 6-[[(5-Methoxy-1H-benzimidazol-2-yl)sulfinyl]-methyl]-2-pyridinamine] | 5.35 | – | 46% | – | – | – | – |
| Nc1ncccc1C[S+]([O-])c1nc2ccccc2[nH]1 (centres unmarked) [Example 81, 3-[(1H-Benzimidazol-2-ylsulfinyl)methyl]-2-pyridinamine hydrate] | ≤ 4.00 | – | – | 41% | – | – | – |
| COc1ccc2[nH]c([S+]([O-])Cc3cccc(C)c3N)nc2c1 (centres unmarked) [Example 36, 2-[[(5-Methoxy-1H-benzimidazol-2-yl)sulfinyl]methyl]-6-methylbenzenamine] | 5.27 | 142 to 144 °C | 96% | – | 72% | – | – |
| Nc1ccc(C(F)(F)F)cc1C[S+]([O-])c1nc2ccccc2[nH]1 (centres unmarked) [Example 49, 2-[(1H-Benzimidazol-2-ylsulfinyl)methyl]-4-(trifluoromethyl)benzenamine] | < 4.00 | 185 to 187 °C | – | – | 16% | – | – |
| Nc1cc(Cl)ccc1C[S+]([O-])c1nc2ccccc2[nH]1 (centres unmarked) [Example 18, 2-[(1H-Benzimidazol-2-ylsulfinyl)methyl]-5-chlorobenzenamine] | 4.62 | 173.5 to 175.5 °C | 13% | – | – | – | – |
| Cc1cccc2[nH]c([S+]([O-])Cc3ccccc3N)nc12.Cc1cccc2[nH]c([S+]([O-])Cc3ccccc3N)nc12.O (centres unmarked) [Example 8, 2-[[(4-Methyl-1H-benzimidazol-2-yl)sulfinyl]methyl]benzenamine hemihydrate] | 5.13 | – | – | – | – | 60 i.v. % | – |
| CC(=O)Nc1ccccc1C[S+]([O-])c1nc2ccccc2[nH]1 (centres unmarked) [Example 6, N-[2-[(1H-Benzimidazol-2-ylsulfinyl)methyl]phenyl]acetamide] | < 4.00 | 201 to 202.5 °C | 37% | – | – | – | – |
| CCNc1cccc(C[S+]([O-])c2nc3ccccc3[nH]2)n1 (centres unmarked) [Example 109, 6-[(1H-Benzimidazol-2-ylsulfinyl)methyl]-N-ethyl-2-pyridinamine] | 4.70 | – | – | – | 58% | – | – |
| CCOc1ccc2[nH]c([S+]([O-])Cc3cc(C)ccc3N)nc2c1 (centres unmarked) [Example 61, 2-[[(5-Ethoxy-1H-benzimidazol-2-yl)sulfinyl]-methyl]-4-methylbenzenamine] | 5.28 | 144 to 145 °C | – | – | – | – | – |
| COC(=O)c1cccc(C[S+]([O-])c2nc3ccccc3[nH]2)c1N (centres unmarked) [Example 69, Methyl 2-amino-3-[(1H-benzimidazol-2-ylsulfinyl)methyl]benzoate hydrate] | 3.82 | – | – | – | – | – | 28% |
| Nc1ccc(Cl)cc1C[S+]([O-])c1nc2ccccc2[nH]1 (centres unmarked) [Example 16, 2-[(1H-Benzimidazol-2-ylsulfinyl)methyl]-4-chlorobenzenamine] | 3.89 | 210 to 211 °C | 24% | – | – | – | – |

Stronger by pIC50 ((H+/K+)-ATPase), values ahead:

| pIC50 ((H+/K+)-ATPase) | melting point | Compound | inhibition in vivo at 3 mg/kg (gastric acid secretion; [1]) | inhibition in vivo at 3 mg/kg (gastric acid secretion; iv) | inhibition in vivo at 3 mg/kg (gastric acid secretion; [2]) | Gastric-Fistula Beagle % Inhibition (3 mg/kg dose) (gastric acid secretion; 3 mg/kg i.v., histamine-stimulated, four-hour period) | inhibition in vivo at 3 mg/kg (gastric acid secretion; intraduodenal) |
| --- | --- | --- | --- | --- | --- | --- | --- |
| 5.37 | 164 to 165 °C | Nc1ccccc1C[S+]([O-])c1nc2ccccc2[nH]1 (centres unmarked) [Example 3, 2-[(1H-Benzimidazol-2-ylsulfinyl)methyl]benzenamine] | 59% | – | 53% | – | – |
| 5.41 | – | CCc1cccc(C[S+]([O-])c2nc3ccccc3[nH]2)c1N (centres unmarked) [Example 38, 2-[(1H-Benzimidazol-2-ylsulfinyl)methyl]-6-ethylbenzenamine] | – | – | 21% | – | – |
| 5.49 | 156 to 157 °C | Cc1cccc(C[S+]([O-])c2nc3ccccc3[nH]2)c1N (centres unmarked) [Example 28, 2-[(1H-Benzimidazol-2-ylsulfinyl)methyl]-6-methylbenzenamine] | 93% | – | 44% | – | – |
| 5.59 | 146 to 148 °C | CCCCc1ccc(N)c(C[S+]([O-])c2nc3ccccc3[nH]2)c1 (centres unmarked) [Example 51, 2-[(1H-Benzimidazol-2-ylsulfinyl)methyl]-4-butylbenzenamine] | – | – | 19% | – | – |
| 5.60 | – | Nc1cccc(C[S+]([O-])c2nc3ccccc3[nH]2)n1 (centres unmarked) [Example 85, 6-[(1H-Benzimidazol-2-ylsulfinyl)methyl]-2-pyridinamine] | 59% | – | – | – | – |
| 5.68 | – | Cc1ccc(N)c(C[S+]([O-])c2nc3ccccc3[nH]2)c1 (centres unmarked) [Example 26, 2-[(1H-Benzimidazol-2-ylsulfinyl)methyl]-4-methylbenzenamine] | 67% | – | – | – | – |
| 5.70 | 155 to 156 °C | CCc1ccc(N)c(C[S+]([O-])c2nc3ccccc3[nH]2)c1 (centres unmarked) [Example 37, 2-[(1H-Benzimidazol-2-ylsulfinyl)methyl]-4-ethylbenzenamine] | – | – | 62% | – | – |
| 6.18 | – | Cc1cccc(N)c1C[S+]([O-])c1nc2ccccc2[nH]1 (centres unmarked) [Example 24, 2-[(1H-Benzimidazol-2-ylsulfinyl)methyl]-3-methylbenzenamine ¼ hydrate] | 73% | – | – | – | – |
